One assay deals with T1, ERK5 (Homo sapiens, UniProt Q13164).
T1 construct: made in house
Briefly: ERK5 IMAP assay (fluorescence polarisation). It counts as biochemical. For orientation: Polarisation of emitted light reports the rotation of a fluorescent probe.

The test system of assay [1] is HA-ERK5-ΔP493 (MEK5D-activated, MEF2D-Gal4/Gal4-Luc reporter) in HEK293T cells. Description: Truncated dual-luciferase reporter assay, HEK293T forward transfection. Format: cell-based. The settings on record: Homo sapiens, HEK-293T, average where more than one data point, read-out: Truncated ERK 5 Reporter Assay. On the procedure: Truncated Dual-Luciferase Reporter Assay
HEK293T and HeLa Forward Transfection
Constitutively-active, EGFP-tagged MEK5 (EGFP-MEK5D; 0.5 μg/μl), an EGFP-tagged construct containing no MEK5D (EGFP-C3; 0.5 μg/μl), and HA-tagged ERK5 with C-terminal truncation (HA-ERK5-ΔP493; 0.51 μg/μl) were diluted separately in sterile distilled water. Plasmid DNA and Lipofectamine 2000 (Invitrogen) were separately diluted in Opti-MEM growth media (reduced serum medium, Invitrogen), and incubated at room temperature for 5 min. Plasmid DNA (Tube A) and Lipofectamine 2000 (Tube B) were then combined and incubated for 20 min at room temperature to complex. Cells were then transfected by addition of 16 μl of the respective transfection mixture: 3 wells with EGFP-C3-containing (control) and 21 wells with MEK5D-containing transfection mixture (final volume, 100 μl). Cells were subsequently incubated for 4 h at 37° prior to addition of potential ERK5-inhibitory compounds.
Addition of Compounds to ERK5-Transfected HEK293T or HeLa Cells
Potential ERK5-inhibitory compounds were prepared as a 2× solution by addition of 2 μl compound (or DMSO as control) to 1 ml standard culture medium. Compounds were tested in triplicate at a concentration range of 0.003 μM, 0.01 μM, 0.03 μM, 0.1 μM, 0.3 μM and 1 μM (or 0.03 μM, 0.1 μM, 0.3 μM, 1 μM, 3 μM and 10 μM for BIX02189) by addition of 100 μl 2× solution to 100 μl transfected cells (final DMSO, 0.1% v/v). Cells were incubated for 24 h at 37° C.
Cell Lysis and Luciferase Quantification
After 24 h incubation in the absence (control) or presence of potential inhibitor, the culture medium was aspirated and cells lysed in 20 μl 1× passive lysis buffer (Dual-Luciferase Reporter Assay System, Promega) for a minimum of 15 min with agitation. Lysates were further processed immediately or stored at −80° C. Cellular inhibition of ERK5 was quantified using the Dual-Luciferase Reporter Assay System (Promega). Luciferase assay buffer/Luciferase assay substrate and Stop and Glo assay buffer/Stop and Glo substrate were prepared according to the manufacturer's instructions. Luciferase reagent (50 μl/well) was added immediately before luminescence detection using a FLUOstar Omega plate reader (BMG Labtech). Stop and Glo reagent (50 μl/well) was subsequently added, and the Renilla luciferase signal (transfection efficiency control) quantified.
The ERK5-specific signalling activity was calculated by subtraction of the EGFP-C3 luciferase signal from the EGFP-MEK5D-induced luminescence. Luminescence in the absence of potential ERK5 inhibitor (DMSO control) was taken as 100% ERK5 activity. […] Unless stated otherwise, data are mean±standard deviation of three independent experiments.
Background: Reporter assays use an easily measured gene product as a stand-in for the process of interest.

Assay [2] relates to ERK5 (HA-ERK5 wt activated by EGFP-MEK5D, MEF2D-Gal4/Gal4-Luc reporter) in HEK293 cells. Description: Dual-luciferase reporter assay (ERK5 reporter), reverse-transfected HEK293 cells. The settings on record: Homo sapiens, HEK293, read-out: ERK 5 Reporter Assay.
Protocol: Trypsinizing of Adherent Cell Colonies
Cells were regularly passaged in order to maintain optimum colony sizes on plates. In order to do this, and to harvest cells for use in the dual-luciferase reporter assay, adherent cells were lifted from tissue culture dishes. Cell media was removed via aspiration, and the cell monolayer was washed with phosphate buffered saline (PBS) solution (10 mL), which was then aspirated.
Reverse Transfection of HEK293 Cells
Preparation of EGFP Control (C3) Working Solution (for 1×96 Well Plate)
Preparation of HEK293 Cells for Reverse Transfection
Trypsinized HEK293 cells were re-suspended in 19 mL of fresh cell media and counted using haemocytometry. Cells were then diluted with fresh cell media to achieve a final cell concentration of 2×10^5 cells/mL. 1237.5 μL and 7425 μL of this cell media was added to the C3 and 5D working solutions respectively. 100 μL of the transfected cells were then aliquoted into the appropriate wells in a 96-well opaque sided tissue culture plate, and incubated at 37° C. for 6 h.
Addition of Compounds to HEK293 Cells
4 compounds was assayed per 96-well plate. For each compound, 1 mL of growth media was added to eight 1.5 mL Eppendorf® tubes. 6 μL of DMSO was added to two tubes for C3 and blank 5D wells, and 6 μL of the relevant compound stock solution was added to the 6 remaining tubes. […] Solutions of drug in media were thoroughly mixed, and 100 μL of the relevant compound was transferred (in triplicate) to the 96-well plate containing transfected HEK293 cells using an electronic multichannel pipette with variable tip spacing. Sealed plates were incubated at 37° C. for 24 h. Final compound concentrations were as follows; 30 μM, 10 μM, 3 μM, 1 μM and 0.3 μM.
15 mL of 1× passive lysis buffer (PLB) was prepared using 5×PLB (Dual-Luciferase Reporter Assay System, Promega® E1960), diluting with H2O. Assay plates prepared were removed from the incubator and the growth media removed by aspiration.
Where [3] appears, read: average (e.g. geometric mean) where more than one data point, read-out: ERK5 IC50.

Where two headings read alike, the source gives them in different places.

T1 sequence (Q13164 whole entry): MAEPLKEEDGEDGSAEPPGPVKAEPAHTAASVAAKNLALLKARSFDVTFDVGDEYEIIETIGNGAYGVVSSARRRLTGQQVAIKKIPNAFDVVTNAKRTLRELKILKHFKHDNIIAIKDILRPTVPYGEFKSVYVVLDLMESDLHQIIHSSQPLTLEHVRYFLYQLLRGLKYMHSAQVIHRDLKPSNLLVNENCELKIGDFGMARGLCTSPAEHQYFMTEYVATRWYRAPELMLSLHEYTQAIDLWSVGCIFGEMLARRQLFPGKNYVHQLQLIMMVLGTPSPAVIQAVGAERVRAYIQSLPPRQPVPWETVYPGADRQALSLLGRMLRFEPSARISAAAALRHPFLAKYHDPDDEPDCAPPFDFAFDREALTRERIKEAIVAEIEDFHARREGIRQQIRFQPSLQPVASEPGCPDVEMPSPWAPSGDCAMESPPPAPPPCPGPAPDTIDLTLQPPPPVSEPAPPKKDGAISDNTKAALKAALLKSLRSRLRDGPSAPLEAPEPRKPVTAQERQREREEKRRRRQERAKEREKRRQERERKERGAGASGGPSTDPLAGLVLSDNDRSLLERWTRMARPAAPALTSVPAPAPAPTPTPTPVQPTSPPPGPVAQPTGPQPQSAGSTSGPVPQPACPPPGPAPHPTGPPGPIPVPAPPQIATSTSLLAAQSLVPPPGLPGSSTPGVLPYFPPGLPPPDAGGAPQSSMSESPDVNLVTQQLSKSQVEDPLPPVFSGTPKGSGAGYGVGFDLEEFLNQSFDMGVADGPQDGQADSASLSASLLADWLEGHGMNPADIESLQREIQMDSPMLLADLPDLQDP

Turning to `CN(C)CCNc1ncc(NC(=O)c2cc(C(=O)c3c(Cl)ccc(Cl)c3F)c[nH]2)cn1` [Example 99, 4-(3,6-Dichloro-2-fluorobenzoyl)-N-(2-((2-(dimethylamino)ethyl)amino)pyrimidin-5-yl)-1H-pyrrole-2-carboxamide], the values for the IC50 (at ERK5 (setting [3]); in assay [1]) were 15.3 nM and 122 nM, respectively.

In the case of `O=C(Nc1cnc(NCCN2CCCC2)nc1)c1cc(C(=O)c2c(Cl)ccc(Cl)c2F)c[nH]1` [Example 102, 4-(3,6-Dichloro-2-fluorobenzoyl)-N-(2-((2-(pyrrolidin-1-yl)ethyl)amino)pyrimidin-5-yl)-1H-pyrrole-2-carboxamide], the IC50 at ERK5 (setting [3]) is 16.6 nM; in assay [1], 85 nM.

In the case of `O=C(Nc1cnc(NCCN2CCOCC2)nc1)c1cc(C(=O)c2c(Cl)ccc(Cl)c2F)c[nH]1` [Example 103, 4-(3,6-Dichloro-2-fluorobenzoyl)-N-(2-((2-morpholinoethyl)amino)pyrimidin-5-yl)-1H-pyrrole-2-carboxamide], the IC50 at ERK5 (setting [3]) was determined as 36.8 nM; in assay [1], 135 nM.

Turning to `O=C(Nc1cnc(NCCN2CCCCC2)nc1)c1cc(C(=O)c2c(Cl)ccc(Cl)c2F)c[nH]1` [Example 104, 4-(3,6-Dichloro-2-fluorobenzoyl)-N-(2-((2-(piperidin-1-yl)ethyl)amino)pyrimidin-5-yl)-1H-pyrrole-2-carboxamide], the IC50 on ERK5 (setting [3]) turned out to be 10.4 nM; in assay [1], 90 nM.

Consider `O=C(Nc1ccc(CN2CCOCC2)nc1)c1cc(C(=O)c2c(Cl)ccc(Cl)c2F)c[nH]1` [Example 115, 4-(3,6-Dichloro-2-fluorobenzoyl)-N-(6-(morpholinomethyl)pyridin-3-yl)-1H-pyrrole-2-carboxamide], for which the figures for the IC50 (on ERK5 (setting [3]); in assay [1]) were 26.5 nM and 31 nM, respectively.

For `O=C(Nc1ccncc1)c1cc(C(=O)c2c(F)cccc2Br)c[nH]1` [Example 189, 4-(2-Bromo-6-fluorobenzoyl)-N-(pyridin-4-yl)-1H-pyrrole-2-carboxamide], the IC50 against ERK5 worked out at 676 nM; in assay [2] it was 4000 nM.

With `Cc1cccc(F)c1C(=O)c1c[nH]c(C(=O)NC2CCNCC2)c1` [Example 191, 4-(2-Fluoro-6-methylbenzoyl)-N-(piperidin-4-yl)-1H-pyrrole-2-carboxamide], the IC50 was determined as 1400 nM at ERK5 (setting [3]) and 19500 nM in assay [2].

In the case of `CN1CCC(NC(=O)c2cc(C(=O)c3c(F)cccc3Cl)c[nH]2)CC1` [Example 192, 4-(2-Chloro-6-fluorobenzoyl)-N-(1-methylpiperidin-4-yl)-1H-pyrrole-2-carboxamide], the values for the IC50 (on ERK5 (setting [3]); in assay [2]) were 199 nM and 3010 nM, respectively.

Consider `O=C(NC1CCNCC1)c1cc(C(=O)c2c(F)cccc2Br)c[nH]1` [Example 197, 4-(2-Bromo-6-fluorobenzoyl)-N-(piperidin-4-yl)-1H-pyrrole-2-carboxamide], for which the IC50 turned out to be 386 nM on ERK5 (setting [3]) and 22000 nM in assay [2].

On to `CN1CCC(NC(=O)c2cc(C(=O)c3c(F)ccc(Cl)c3F)c[nH]2)CC1` [Example 213, 4-(3-Chloro-2,6-difluorobenzoyl)-N-(1-methylpiperidin-4-yl)-1H-pyrrole-2-carboxamide], for which the IC50 on ERK5 (setting [3]) stood at 156 nM; in assay [2] it was 3510 nM.

For the compound `O=C(Nc1cccnc1)c1cc(C(=O)c2cc(F)ccc2F)c[nH]1` [Example 225, 4-(2,5-Difluorobenzoyl)-N-(pyridin-3-yl)-1H-pyrrole-2-carboxamide], the IC50 at ERK5 (setting [3]) was 6030 nM; in assay [2] it was 4770 nM.

`COc1ccc(Cl)c(C(=O)c2c[nH]c(C(=O)Nc3ccc(CC4CCN(C)CC4)nc3)c2)c1F` [Example 236, 4-(6-Chloro-2-fluoro-3-methoxybenzoyl)-N-(6-((1-methylpiperidin-4-yl)methyl)pyridin-3-yl)-1H-pyrrole-2-carboxamide]: the values for the IC50 (on ERK5 (setting [3]); in assay [1]) were 10.2 nM and 96 nM, respectively.

For `COc1ccc(Cl)c(C(=O)c2c[nH]c(C(=O)Nc3cnc(CN4CCN(C)CC4)nc3)c2)c1F` [Example 245, 4-(6-Chloro-2-fluoro-3-methoxybenzoyl)-N-(2-((4-methylpiperazin-1-yl)methyl)pyrimidin-5-yl)-1H-pyrrole-2-carboxamide], the IC50 on ERK5 (setting [3]) came out at 13 nM; in assay [1], 461 nM.

As to `COc1ccc(Cl)c(C(=O)c2c[nH]c(C(=O)Nc3ccc(CN4CCN(C)CC4)nc3)c2)c1F` [Example 246, 4-(6-Chloro-2-fluoro-3-methoxybenzoyl)-N-(6-((4-methylpiperazin-1-yl)methyl)pyridin-3-yl)-1H-pyrrole-2-carboxamide], the IC50 at ERK5 (setting [3]) is 8.5 nM; in assay [1], 69 nM.

`COc1ccc(Cl)c(C(=O)c2c[nH]c(C(=O)Nc3cnc(CN4CCNCC4)nc3)c2)c1F` [Example 250, 4-(6-Chloro-2-fluoro-3-methoxybenzoyl)-N-(2-(piperazin-1-ylmethyl)pyrimidin-5-yl)-1H-pyrrole-2-carboxamide]: the IC50 amounted to 15.8 nM on ERK5 (setting [3]) and 573 nM in assay [1].

`COc1ccc(Cl)c(C(=O)c2c[nH]c(C(=O)Nc3cnc(CC4CCNCC4)nc3)c2)c1F` [Example 252, 4-(6-Chloro-2-fluoro-3-methoxybenzoyl)-N-(2-(piperidin-4-ylmethyl)pyrimidin-5-yl)-1H-pyrrole-2-carboxamide]: the IC50 on ERK5 (setting [3]) was 12.2 nM; in assay [1], 627 nM.

On to `O=C(Nc1cnc(CC2CCNCC2)nc1)c1cc(C(=O)c2c(Cl)ccc(Cl)c2F)c[nH]1` [Example 253, 4-(3,6-Dichloro-2-fluorobenzoyl)-N-(2-(piperidin-4-ylmethyl)pyrimidin-5-yl)-1H-pyrrole-2-carboxamide], for which the IC50 on ERK5 (setting [3]) turned out to be 7.5 nM; in assay [1], 239 nM.

On to `CCN(CC)CCNc1ccc(NC(=O)c2cc(C(=O)c3c(Cl)ccc(Cl)c3F)c[nH]2)cn1` [Example 262, 4-(3,6-Dichloro-2-fluorobenzoyl)-N-(6-((2-(diethylamino)ethyl)amino)pyridin-3-yl)-1H-pyrrole-2-carboxamide], for which the IC50 amounted to 18.5 nM on ERK5 (setting [3]) and 149 nM in assay [1].

In the case of `O=C(Nc1ccc(NCCN2CCCCC2)nc1)c1cc(C(=O)c2c(Cl)ccc(Cl)c2F)c[nH]1` [Example 264, 4-(3,6-Dichloro-2-fluorobenzoyl)-N-(6-((2-(piperidin-1-yl)ethyl)amino)pyridin-3-yl)-1H-pyrrole-2-carboxamide], the IC50 on ERK5 (setting [3]) was determined as 11.1 nM; in assay [1], 142 nM.

Take `O=C(Nc1ccc(NCCN2CCCC2)nc1)c1cc(C(=O)c2c(Cl)ccc(Cl)c2F)c[nH]1` [Example 275, 4-(3,6-Dichloro-2-fluorobenzoyl)-N-(6-((2-(pyrrolidin-1-yl)ethyl)amino)pyridin-3-yl)-1H-pyrrole-2-carboxamide]: the IC50 on ERK5 (setting [3]) worked out at 7.1 nM; in assay [1], 107 nM.

`O=C(Nc1ccc(NCCN2CCOCC2)nc1)c1cc(C(=O)c2c(Cl)ccc(Cl)c2F)c[nH]1` [Example 276, 4-(3,6-Dichloro-2-fluorobenzoyl)-N-(6-((2-morpholinoethyl)amino)pyridin-3-yl)-1H-pyrrole-2-carboxamide]: the IC50 on ERK5 (setting [3]) came out at 58.1 nM; in assay [1], 125 nM.

Regarding `CN(C)Cc1ccc(NC(=O)c2cc(C(=O)c3c(Cl)ccc(Cl)c3F)c[nH]2)cn1` [Example 277, 4-(3,6-Dichloro-2-fluorobenzoyl)-N-(6-((dimethylamino)methyl)pyridin-3-yl)-1H-pyrrole-2-carboxamide], the values for the IC50 (at ERK5 (setting [3]); in assay [1]) were 22 nM and 36 nM, respectively.

(Values after US10344017B2, “Pyrrolcarboxamide derivatives for the inhibition of ERK5” (CANCER RESEARCH TECHNOLOGY LIMITED, priority 2014, dated 2019).)
